Test results taken from patent US6492174B1, “Methods of initiating embryogenic cultures in plants” (Institute of Paper Science & Technology, priority 2000, dated 2002).

Key:
[1] = test system: cultured cells of Onosma paniculatum; conditions: media containing 0.01 ppb brassinolide; cited from earlier work
[2] = test system: Loblolly pine megagametophytes; experiment: Loblolly pine extrusion and initiation on solid media #945 with brassinolide, eight weeks; format: cell-based
Protocol: In each replicate set of ten explants, the frequency of extrusion was measured as the number of extrusions per ten megagametophytes. A successful extrusion was scored where a filamentous mass of tissue that had emerged from the megagametophyte was clearly visible. Initiation was also scored at the end of the 8th week. In each replicate set of ten explants, the frequency of initiation was recorded as the number of successful initiations out of the ten megagametophytes. A successful initiation was scored where the extruded tissue had clearly proliferated and at least one somatic embryo was visible. Often, visualization was aided by the fact that the zygotic tissue was brownish while new somatic embryos were whitish and translucent. Also, somatic embryos could often be seen growing directly from zygotic embryos.
This experiment measured the effects of varying concentrations of brassinolide on extrusion and initiation in Loblolly pine. The explants in this experiment were megagametophytes isolated from cone collections from four open-pollinated trees, representing a multiplicity of genotypes. The seeds contained Stage 2-4 zygotic embryos. Seeds were sterilized as described in Example 1. Seed coats were split and the megagametophytes were isolated by removing integuments and nucellus. Isolated megagametophytes were placed on solid media. […] The treatment media consisted of media #945 with added brassinolide varying from 0.005 to 0.1 μM (Table 10). The experiment consisted of three replications per treatment, per genotype.
Initiation frequency was increased by the addition of brassinolide at all concentrations (Table 12). There was no clear concentration effect within the tested range. […] One of skill in the art could empirically determine the upper and lower effective concentration of brassinolide which is effective in promoting initiation.

In the case of `CC(C)[C@H](C)[C@@H](O)[C@H](O)[C@@H](C)[C@H]1CC[C@H]2[C@@H]3COC(=O)[C@H]4C[C@H](O)[C@H](O)C[C@]4(C)[C@H]3CC[C@]12C` [brassinolide], the “growth of cultured cells” value [1] is given as “slightly increased growth”, the “Initiation frequency vs control” value ([2]; brassinolide at all concentrations (0.005 to 0.1 μM)) is given as “increased” and the “% of Megagametophytes Extruding” value ([2]; genotype FC, 0.005 μM Br) is given as 40.0 (5.8) %. For the same compound, the “% of Megagametophytes Initiating” value ([2]; genotype FC, 0.005 μM Br) was 0 (0) %, the “% of Megagametophytes Extruding” value ([2]; genotype FC, 0.01 μM Br) was 20.0 (5.8) % and the “% of Megagametophytes Initiating” value ([2]; genotype FC, 0.01 μM Br) was 6.7 (3.3) %. The “% of Megagametophytes Extruding” value ([2]; genotype FC, 0.025 μM Br) was 40.0 (5.8) %, the “% of Megagametophytes Initiating” value ([2]; genotype FC, 0.025 μM Br) was 0 (0) % and the “% of Megagametophytes Extruding” value ([2]; genotype FC, 0.05 μM Br) was 26.7 (3.3) %. The “% of Megagametophytes Initiating” value ([2]; genotype FC, 0.05 μM Br) was 0 (0) %, the “% of Megagametophytes Extruding” value ([2]; genotype FC, 0.1 μM Br) was 31.8 (16.5) % and the “% of Megagametophytes Initiating” value ([2]; genotype FC, 0.1 μM Br) was 3.7 (3.7) %. For the same compound, the “% of Megagametophytes Extruding” value ([2]; genotype FT, 0.005 μM Br) was 96.7 (3.3) %, the “% of Megagametophytes Initiating” value ([2]; genotype FT, 0.005 μM Br) was 53.3 (12.0) % and the “% of Megagametophytes Extruding” value ([2]; genotype FT, 0.01 μM Br) was 86.7 (8.8) %. For the same compound, the “% of Megagametophytes Initiating” value ([2]; genotype FT, 0.01 μM Br) was 43.3 (16.7) %, the “% of Megagametophytes Extruding” value ([2]; genotype FT, 0.025 μM Br) was 93.3 (6.7) % and the “% of Megagametophytes Initiating” value ([2]; genotype FT, 0.025 μM Br) was 46.7 (12.0) %. For the same compound, the “% of Megagametophytes Extruding” value ([2]; genotype FT, 0.05 μM Br) was 93.3 (3.3) %, the “% of Megagametophytes Initiating” value ([2]; genotype FT, 0.05 μM Br) was 53.3 (8.8) % and the “% of Megagametophytes Extruding” value ([2]; genotype FT, 0.1 μM Br) was 86.7 (3.3) %. For the same compound, the “% of Megagametophytes Initiating” value ([2]; genotype FT, 0.1 μM Br) was 50 (3.3) %, the “% of Megagametophytes Extruding” value ([2]; genotype FW, 0.005 μM Br) was 83.3 (8.8) % and the “% of Megagametophytes Initiating” value ([2]; genotype FW, 0.005 μM Br) was 20 (5.8) %. The “% of Megagametophytes Extruding” value ([2]; genotype FW, 0.01 μM Br) was 50.0 (10.0) %, the “% of Megagametophytes Initiating” value ([2]; genotype FW, 0.01 μM Br) was 3.3 (3.3) % and the “% of Megagametophytes Extruding” value ([2]; genotype FW, 0.025 μM Br) was 64.8 (13.4) %. The “% of Megagametophytes Initiating” value ([2]; genotype FW, 0.025 μM Br) was 20.7 (11.6) %, the “% of Megagametophytes Extruding” value ([2]; genotype FW, 0.05 μM Br) was 70.0 (11.5) % and the “% of Megagametophytes Initiating” value ([2]; genotype FW, 0.05 μM Br) was 13.3 (8.8) %. For the same compound, the “% of Megagametophytes Extruding” value ([2]; genotype FW, 0.1 μM Br) was 73.3 (8.8) %, the “% of Megagametophytes Initiating” value ([2]; genotype FW, 0.1 μM Br) was 30 (5.8) % and the “% of Megagametophytes Extruding” value ([2]; genotype FX, 0.005 μM Br) was 53.3 (8.8) %. The “% of Megagametophytes Initiating” value ([2]; genotype FX, 0.005 μM Br) was 26.7 (8.8) %, the “% of Megagametophytes Extruding” value ([2]; genotype FX, 0.01 μM Br) was 63.3 (14.5) % and the “% of Megagametophytes Initiating” value ([2]; genotype FX, 0.01 μM Br) was 33.3 (12.0) %. For the same compound, the “% of Megagametophytes Extruding” value ([2]; genotype FX, 0.025 μM Br) was 70.0 (5.8) %, the “% of Megagametophytes Initiating” value ([2]; genotype FX, 0.025 μM Br) was 23.3 (3.3) % and the “% of Megagametophytes Extruding” value ([2]; genotype FX, 0.05 μM Br) was 73.3 (8.8) %. The “% of Megagametophytes Initiating” value ([2]; genotype FX, 0.05 μM Br) was 43.3 (6.7) %, the “% of Megagametophytes Extruding” value ([2]; genotype FX, 0.1 μM Br) was 76.7 (8.8) % and the “% of Megagametophytes Initiating” value ([2]; genotype FX, 0.1 μM Br) was 36.7 (8.8) %. The “concentrations at which brassinolide was effectively used” value ([2]; in our media) was 0.005 to 0.25 µM, the “% of Megagametophytes Extruding” value ([2]; total, 0.005 μM Br) was 68.3% and the “% of Megagametophytes Initiating” value ([2]; total, 0.005 μM Br) was 25.0%. The “% of Megagametophytes Extruding” value ([2]; total, 0.01 μM Br) was 55.0%, the “% of Megagametophytes Initiating” value ([2]; total, 0.01 μM Br) was 21.7% and the “% of Megagametophytes Extruding” value ([2]; total, 0.025 μM Br) was 67.0%. For the same compound, the “% of Megagametophytes Initiating” value ([2]; total, 0.025 μM Br) was 22.7%, the “% of Megagametophytes Extruding” value ([2]; total, 0.05 μM Br) was 65.8% and the “% of Megagametophytes Initiating” value ([2]; total, 0.05 μM Br) was 27.5%. The “% of Megagametophytes Extruding” value ([2]; total, 0.1 μM Br) was 67.1% and the “% of Megagametophytes Initiating” value ([2]; total, 0.1 μM Br) was 30.1%.
